The results in this text go back to article PMC10102849 (Clinical cancer research : an official journal of the …, 2023).

By IC50 is commonly meant the concentration that inhibits the measured activity by half.

The subject of one assay is JW23.3 cells. Type of assay: cell-based, murine. Conditions: 72 hours.
Another assay relates to JH-2-002 cells. Type of assay: cell-based, human. The following applies: 72 hours.
In a further assay the test system is MPNST-724 cells. Type of assay: cell-based, human. Conditions: 3 days.
Assay [1] deals with JW23.3, JH-2-002, and MPNST-724 cells. The assay can be described thus: IncuCyte proliferation assay, range stated over three MPNST cell lines. Type of assay: cell-based. Conditions: 72 h, read-out: IC50 for inhibition of cell confluence, range over cell lines.

For `O=C(NOC[C@H](O)CO)c1ccc(F)c(F)c1Nc1ccc(I)cc1F` [mirdametinib], the “effect on percent cell confluence / proliferation” value in the assay with JW23.3 cells and with JH-2-002 cells was “dose-dependently reduced” in each case. Also, the effect on proliferation result in the assay on MPNST-724 cells is “dose-dependently reduced”. In assay [1], the IC50 was 220 to 1220 nM.

`CCS(=O)(=O)N1CC(CC#N)(n2cc(-c3ncnc4[nH]ccc34)cn2)C1` [baricitinib]: the “effect on percent cell confluence / proliferation” value with JW23.3 cells and in the assay on JH-2-002 cells was “decreased cell proliferation at higher doses” each time.
